We go through four molecules from ChEMBL document CHEMBL1132661, “Synthesis and preliminary biological evaluation of new alpha-amino amide anticonvulsants incorporating a dextromethorphan moiety” (Bioorg Med Chem Lett, 1999).

Data set [1] concerns Mus musculus. Put plainly: Psychomotor side-effect in mice by rotarod test by intraperitoneal administration at 60 mins. Format: functional. To be noted: ip, 1 h. (In the rotarod test animals must keep their balance on a rotating rod.)
Data set [2] deals with T1, Sodium channel alpha subunits; brain (Types I, II, III) (Rattus norvegicus, UniProt P04775+P04774+P08104). Briefly: Binding of [3H]batrachotoxin (BTX) to rat brain sodium channel.
Data set [3] has as its system Mus musculus. Put plainly: Anticonvulsant activity in mice by peroral administration measured at 60 mins before maximum electroshock seizure induction. Format: functional. To be noted: po.
In data set [4] the target is T1, Sodium channel alpha subunits; brain (Types I, II, III). Briefly: Binding of [3H]saxitoxin (STX) to rat brain sodium channel.
For data set [5], the system named is Mus musculus. Put plainly: Anticonvulsant activity in mice by intraperitoneal administration measured at 30 mins before maximum electroshock seizure induction. The note with it: ip. Format: functional.
Data set [6] in a line: Therapeutic index TI (ED50 rotorod/MES) of the compound. The note with it: mouse; read-out: TI.
A short description of data set [7]: Significant mortality was observed in mice caused by the compound. Format: ADME. The note with it: mouse, in vivo.

In general, ED50 refers to the dose at which the effect has come halfway, by size or by number of responders. A lower ED50 goes with an effect at a small dose. For orientation: IC50 means the midpoint of a concentration-inhibition curve. A high value points to a need for much substance. With `C[C@H](C(N)=O)N1CCC23CCCCC2[C@@H]1Cc1ccc(OCc2cccc(F)c2)cc13` (stereo partly specified), the ED50 was 176 mg/kg in data set [1], 50.8 mg/kg in data set [3] and 18.1 mg/kg in data set [5]. In addition, the IC50 in data set [2] is 2.6 µM; in data set [4], more than 300 µM. Moreover, the selectivity ratio in data set [6] worked out at 10.
In the case of `CNC(=O)[C@@H](C)N1CCC23CCCCC2[C@@H]1Cc1ccc(OCc2cccc(F)c2)cc13` (stereo partly specified), the ED50 in data set [1] was found to be 152 mg/kg; in data set [5], 41.6 mg/kg. For the same molecule, the IC50 in data set [2] was 5.3 µM; in data set [4], more than 300 µM. For the same molecule, the selectivity ratio in data set [6] was found to be 4.
In general, LD50 refers to the dose expected to kill half of the subjects tested. Higher therefore signals a less toxic substance. As to `COc1ccc2c(c1)C13CCCCC1C(C2)N(C)CC3` (stereo not drawn) [RACEMETHORPHAN], the 50% inhibitory concentration (IC50) in data set [2] is 1.3 µM; in data set [4], more than 300 µM. Moreover, the ED50 amounted to 12.9 mg/kg in data set [3] and 10.1 mg/kg in data set [5]. Also, the LD50 in data set [7] was 234 mg/kg.
As for `CS(=O)(=O)O.C[C@H](NCc1ccc(OCc2cccc(F)c2)cc1)C(N)=O` [SAFINAMIDE MESYLATE], the results for the ED50 in data set [1], in data set [3] and in data set [5] were 626 mg/kg, 8 mg/kg and 6.9 mg/kg, respectively. The molecule further had an IC50 in data set [4] of more than 300 µM. The selectivity ratio in data set [6] was 78.
